From PMC9291665, “Discovery and SAR analysis of 5-chloro-4-((substituted phenyl)amino)pyrimidine bearing histone deacetylase inhibitors” (Journal of Enzyme Inhibition and Medicinal Chemistry, 2022) come the findings set out here.

The test system of assay [1] is Hela nucleus extract containing a mixture of HDAC isoforms. Nature of the assay: HDAC enzyme inhibitory screening against Hela nucleus extract. The format is biochemical. The settings on record: at concentration of 1.0 µM, mean of three experiments. How it is done:
The synthesised molecules were firstly screened against Hela nucleus extract containing a mixture of HDAC isoforms.
All HDAC enzymes were purchased from BPS Bioscience. In short, 60 µL of recombinant HDAC enzyme solution was mixed with various concentrations of test compound (40 µL), and then incubated at 37 °C for 30 minutes. The reaction was terminated by adding 100 µL of imaging agent containing trypsin and trichostatin A (TSA). After standing for 20 min, the fluorescence intensity was measured at the excitation and emission wavelengths of 360 and 460 nm with a microplate reader. The inhibition rate was calculated from the fluorescence intensity readings of the test wells relative to the control wells, and the IC50 curve and value were determined by GraphPad Prism 6.0 software.

In a further assay the test system is K562 cells. The experiment in a line: In vitro antiproliferative assay (CCK-8), K562. The format is cell-based. The following applies: Homo sapiens, at concentration of 1.0 µM, mean of three experiments, read-out: K562 percentage inhibitory rate. The protocol:
The proliferation of cancer cells was tested by CCK-8 assay. Briefly, cells were seeded in 96-well plate with about 5 × 10^3 cells in each well. The cells were treated with tested compounds after 24 h of incubation. CCK-8 reagent ([…]) was added to each well after 72 h of incubation, and cells were incubated at 37 °C for 4 h. The light absorbance at 450 nm was measured by using an Opsys microplate reader (Dynex Technologies, Chantilly, VA, USA).

Regarding `O=C(NO)c1ccc(N2CCN(c3ncc(Cl)c(Nc4ccccc4)n3)CC2)cc1` [Compound L1, 4–(4-(5-chloro-4-(phenylamino)pyrimidin-2-yl)piperazin-1-yl)-N-hydroxybenzamide], the “HDACs percentage inhibitory rate” value in assay [1] came out at 50.54 ± 2.27%. In the assay with K562 cells, the inhibition at 1 µM stood at 30.7 ± 0.32%.

As for `Cc1ccc(Nc2nc(N3CCN(c4ccc(C(=O)NO)cc4)CC3)ncc2Cl)cc1` [Compound L2, 4–(4-(5-chloro-4-(p-tolylamino)pyrimidin-2-yl)piperazin-1-yl)-N-hydroxybenzamide], the “HDACs percentage inhibitory rate” value in assay [1] is given as 47.98 ± 1.54%. Besides, the inhibition at 1 µM with K562 cells came to 43.9 ± 0.81%.

In the case of `CCc1ccc(Nc2nc(N3CCN(c4ccc(C(=O)NO)cc4)CC3)ncc2Cl)cc1` [Compound L3, 4–(4-(5-chloro-4-((4-ethylphenyl)amino)pyrimidin-2-yl)piperazin-1-yl)-N-hydroxybenzamide], the “HDACs percentage inhibitory rate” value in assay [1] came to 50.54 ± 0.21%. In the assay on K562 cells, the inhibition at 1 µM worked out at 19.5 ± 0.06%.

For `O=C(NO)c1ccc(N2CCN(c3ncc(Cl)c(Nc4ccc(F)cc4)n3)CC2)cc1` [Compound L4, 4–(4-(5-chloro-4-((4-fluorophenyl)amino)pyrimidin-2-yl)piperazin-1-yl)-N-hydroxybenzamide], the “HDACs percentage inhibitory rate” value in assay [1] is listed as 53.89 ± 3.35%. Further, the inhibition at 1 µM in the assay with K562 cells is 58.2 ± 1.05%.

As for `N#Cc1ccc(Nc2nc(N3CCN(c4ccc(C(=O)NO)cc4)CC3)ncc2Cl)cc1` [Compound L5, 4–(4-(5-chloro-4-((4-cyanophenyl)amino)pyrimidin-2-yl)piperazin-1-yl)-N-hydroxybenzamide], the “HDACs percentage inhibitory rate” value in assay [1] came out at 48.33 ± 0.64%. The inhibition at 1 µM in the assay on K562 cells was found to be 31.51 ± 0.09%.

With `COc1cc(Nc2nc(N3CCN(c4ccc(C(=O)NO)cc4)CC3)ncc2Cl)cc(OC)c1` [Compound L6, 4–(4-(5-chloro-4-((3,5-dimethoxyphenyl)amino)pyrimidin-2-yl)piperazin-1-yl)-N-hydroxybenzamide], the “HDACs percentage inhibitory rate” value in assay [1] came to 59.74 ± 0.03%. In the assay with K562 cells, the inhibition at 1 µM was 56.6 ± 0.11%.

Take `COc1ccc(Nc2nc(N3CCN(c4ccc(C(=O)NO)cc4)CC3)ncc2Cl)cc1OC` [Compound L7, 4–(4-(5-chloro-4-((3,4-dimethoxyphenyl)amino)pyrimidin-2-yl)piperazin-1-yl)-N-hydroxybenzamide]: the “HDACs percentage inhibitory rate” value in assay [1] amounted to 58.37 ± 1.55%. Besides, the inhibition at 1 µM in the assay on K562 cells was 63.9 ± 1.12%.

For `CCOc1ccc(Nc2nc(N3CCN(c4ccc(C(=O)NO)cc4)CC3)ncc2Cl)cc1` [Compound L8, 4–(4-(5-chloro-4-((4-ethoxyphenyl)amino)pyrimidin-2-yl)piperazin-1-yl)-N-hydroxybenzamide], in assay [1], the “HDACs percentage inhibitory rate” value was 49.32 ± 0.89%. Besides, the inhibition at 1 µM with K562 cells was found to be 37.1 ± 1.54%.

Turning to `COc1cccc(Nc2nc(N3CCN(c4ccc(C(=O)NO)cc4)CC3)ncc2Cl)c1` [Compound L9, 4–(4-(5-chloro-4-((3-methoxyphenyl)amino)pyrimidin-2-yl)piperazin-1-yl)-N-hydroxybenzamide], in assay [1], the “HDACs percentage inhibitory rate” value amounted to 55.28 ± 0.15%. The inhibition at 1 µM in the assay with K562 cells is 50.8 ± 2.92%.

`O=C(NO)c1ccc(N2CCN(c3ncc(Cl)c(Nc4cccc(Br)c4)n3)CC2)cc1` [Compound L10, 4–(4–(4-((3-bromophenyl)amino)-5-chloropyrimidin-2-yl)piperazin-1-yl)-N-hydroxybenzamide]: in assay [1], the “HDACs percentage inhibitory rate” value is listed as 51.50 ± 2.03%. Also, the inhibition at 1 µM in the assay with K562 cells was 31.6 ± 1.12%.

As for `O=C(NO)c1ccc(N2CCN(c3ncc(Cl)c(Nc4ccc(Br)cc4)n3)CC2)cc1` [Compound L11, 4–(4–(4-((4-bromophenyl)amino)-5-chloropyrimidin-2-yl)piperazin-1-yl)-N-hydroxybenzamide], the “HDACs percentage inhibitory rate” value in assay [1] turned out to be 59.82 ± 4.01%. Besides, in the assay with K562 cells, the inhibition at 1 µM amounted to 60.9 ± 0.21%.

Consider `O=C(NO)c1ccc(N2CCN(c3ncc(Cl)c(Nc4cccc(Cl)c4)n3)CC2)cc1` [Compound L12, 4–(4-(5-chloro-4-((3-chlorophenyl)amino)pyrimidin-2-yl)piperazin-1-yl)-N-hydroxybenzamide], for which the “HDACs percentage inhibitory rate” value in assay [1] amounted to 32.74 ± 0.38%. Besides, the inhibition at 1 µM in the assay on K562 cells turned out to be 50.6 ± 1.86%.
